Reference: patent US8580821B2, “Serotonin transporter (SERT) inhibitors for the treatment of depression and anxiety” (Hoffmann-La Roche Inc., priority 2006, dated 2013)
Counter-ions that a name gives are not always drawn. Like-named read-outs stand apart in the source and are kept apart here.

Legend:
[1] = molecular target: T1, human NK-1 receptor (Homo sapiens, UniProt P25103); experiment: hNK-1 binding assay ([3H]substance P displacement, transfected CHO cells)
T1 construct: expressed in transfected cells; host or cells: CHO cells, Semliki virus expression system; membrane suspension
Procedure: The affinity of test compounds for the NK-1 receptor was evaluated at human NK-1 receptors in CHO cells transfected with the human NK-1 receptor using the Semliki virus expression system and radiolabelled with [^3H]substance P (final concentration 0.6 nM). Binding assays were performed in HEPES buffer (50 mM, pH 7.4) containing BSA (0.04%) leupeptin (8 μg/ml), MnCl2 (3 mM) and phosphoramidon (2 μM). Binding assays consisted of 250 μl of membrane suspension (1.25×10^5 cells/assay tube), 125 μl of buffer of displacing agent and 125 μl of [^3H]substance P. Displacement curves were determined with at least ten concentrations of the compound. The assay tubes were incubated for 60 min at room temperature after which time the tube contents were rapidly filtered under vacuum through GF/C filters presoaked for 60 min with PEI (0.3%) with 2×2 ml washes of HEPES buffer (50 mM, pH 7.4). The radioactivity retained on the filters was measured by scintillation counting. All assays were performed in duplicate in at least 2 separate experiments.
The inhibition dissociation constant (Ki) of each compound for NK1 is determined as described above for hSERT.

[2] = molecular target: T2, recombinant human SERT (Homo sapiens, UniProt P31645); experiment: hSERT SPA binding assay ([3H]citalopram displacement, HEK-293 membranes)
T2 construct: expressed in transfected cells
Procedure: HEK-293 cells stably expressing recombinant human SERT are maintained with DMEM high glucose with 10% FBS, 300 μg/ml G418 and 2 mM L-Glutamine and incubated at 37° C. with 5% CO2. Cells are released from culture flasks using PBS for 1-2 min. The cells are subsequently centrifuged at 1000 g's for 5 min and resuspended in PBS prior to being used in the membrane preparation.
Cells are homogenized using a Polytron in 50 mM Tris (pH 7.4). Centrifuged at 48,000×g for 15 min, and the pellet resuspended in fresh buffer. After a second centrifugation, the pellet is re-homogenized and resuspended in fresh buffer. Typically, membrane portions are aliquoted in 3 mg/ml (w:v). and stored at 80° C.
A serial dilution of test compounds in 50 mM Tris-HCl, 120 mM NaCl, KCl 5 mM (pH 7.4) is made in a white Optiplate (Packard) (100 μl/well) and the radioligand ^3[H] Citalopram (Specific activity: 60-86 Ci/mmol, Final concentration: 1 nM) is added at 50 μl/well. Membrane and beads are prepared to a ratio of 5 μg:0.6 mg, with 0.6 mg PVT-WGA Amersham beads (Cat# RPQ0282V) added per well. 50 μl of the membrane/bead mixture is added to the assay plate for a final volume of 200 μl. The mixtures are allowed to stand at room temperature for one hour, and are then counted on a Packard TopCount.
The inhibition dissociation constant (Ki) of each compound is determined according to the method of Cheng-Prusoff.

[3] = [3H]substance P 0.6 nM, CHO cells transfected with human NK-1 receptor, read-out: pKi hNK1 (converted)
[4] = read-out: pKi hSERT (converted)

T2 sequence (P31645 whole entry): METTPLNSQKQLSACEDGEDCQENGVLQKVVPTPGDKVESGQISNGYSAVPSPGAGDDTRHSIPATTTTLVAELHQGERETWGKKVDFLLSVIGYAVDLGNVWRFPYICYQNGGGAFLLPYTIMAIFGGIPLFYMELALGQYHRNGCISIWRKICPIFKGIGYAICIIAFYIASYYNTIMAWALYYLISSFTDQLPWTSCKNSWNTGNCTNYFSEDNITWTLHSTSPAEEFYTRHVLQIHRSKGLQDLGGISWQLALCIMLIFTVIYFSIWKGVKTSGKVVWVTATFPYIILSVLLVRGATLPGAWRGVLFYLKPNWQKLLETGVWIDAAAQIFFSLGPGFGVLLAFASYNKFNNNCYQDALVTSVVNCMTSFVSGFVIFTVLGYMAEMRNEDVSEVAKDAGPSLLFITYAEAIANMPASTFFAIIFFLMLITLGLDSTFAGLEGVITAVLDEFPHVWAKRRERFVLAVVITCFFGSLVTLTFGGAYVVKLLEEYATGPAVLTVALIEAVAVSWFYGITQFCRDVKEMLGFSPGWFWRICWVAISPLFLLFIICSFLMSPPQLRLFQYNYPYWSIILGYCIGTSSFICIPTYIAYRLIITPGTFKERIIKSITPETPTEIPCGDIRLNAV
T1 sequence (P25103 whole entry): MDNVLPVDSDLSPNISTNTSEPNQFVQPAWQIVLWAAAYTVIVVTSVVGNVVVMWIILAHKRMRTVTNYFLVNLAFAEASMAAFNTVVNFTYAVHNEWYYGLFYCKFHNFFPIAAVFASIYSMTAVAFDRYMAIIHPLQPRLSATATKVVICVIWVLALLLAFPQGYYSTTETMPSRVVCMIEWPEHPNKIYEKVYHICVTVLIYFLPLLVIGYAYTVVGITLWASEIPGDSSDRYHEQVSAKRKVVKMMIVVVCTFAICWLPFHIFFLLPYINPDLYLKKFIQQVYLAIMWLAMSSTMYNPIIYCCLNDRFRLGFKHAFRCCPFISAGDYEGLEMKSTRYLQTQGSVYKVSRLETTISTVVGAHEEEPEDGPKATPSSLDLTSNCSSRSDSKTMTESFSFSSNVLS

Structure (SMILES) | Ki [1, 3] [nM] | Ki [2, 4] [nM] | Ki [1] [nM] | Ki [2] [nM]
FC(F)(F)c1cc(COC[C@@H]2CNCC[C@H]2c2ccccc2)cc(C(F)(F)F)c1 (racemic) [Example 5 of I, (3SR,4RS)-3-(3,5-Bis-trifluoromethyl-benzyloxymethyl)-4-phenyl-piperidine hydrochloride] | 8.91 | 11 | – | –
Cc1ccccc1[C@@H]1CCNC[C@H]1COCc1cc(C(F)(F)F)cc(C(F)(F)F)c1 (relative stereo) [Example 6 of I, (−)-(trans)-3-(3,5-Bis-trifluoromethyl-benzyloxymethyl)-4-o-tolyl-piperidine hydrochloride] | 24 | 32.4 | – | –
Fc1ccc([C@@H]2CCNC[C@H]2COCc2cc(C(F)(F)F)cc(C(F)(F)F)c2)cc1 [Example 1 of I, (−)-(3S,4R)-3-(3,5-Bis-trifluoromethyl-benzyloxymethyl)-4-(4-fluoro-phenyl)-piperidine hydrochloride] | – | 6.17 | 12.6 | –
Fc1ccc([C@@H]2CCNCC2CNCc2cc(C(F)(F)F)cc(C(F)(F)F)c2)cc1 (stereo partly shown) [Example 1 of III, reference compound] | 12.6 | 724 | – | –
[O-][S+](Cc1cc(C(F)(F)F)cc(C(F)(F)F)c1)C[C@@H]1CNCC[C@H]1c1ccc(F)cc1 (stereo partly shown) [Example 2 of II, reference compound] | 63.1 | 3020 | – | –
CN(Cc1cc(C(F)(F)F)cc(C(F)(F)F)c1)C[C@@H]1CNCC[C@H]1c1ccc(F)cc1 [Example 2 of III, reference compound] | 20.4 | 708 | – | –
CN1CC[C@@H](c2ccc(F)cc2)[C@H](COCc2cc(C(F)(F)F)cc(C(F)(F)F)c2)C1 [Example 2 of I] | 8.13 | 107 | – | –
N#CCN1CC[C@@H](c2ccc(F)cc2)[C@H](COCc2cc(C(F)(F)F)cc(C(F)(F)F)c2)C1 [Example 3 of I, (−)-[(3S,4R)-3-(3,5-Bis-trifluoromethyl-benzyloxymethyl)-4-(4-fluoro-phenyl)-piperidin-1-yl]-acetonitrile] | 21.4 | 141 | – | –
O=S(=O)(Cc1cc(C(F)(F)F)cc(C(F)(F)F)c1)C[C@@H]1CNCC[C@H]1c1ccc(F)cc1 [Example 3 of II, reference compound] | 13.5 | – | – | –
CC(=O)N(Cc1cc(C(F)(F)F)cc(C(F)(F)F)c1)C[C@@H]1CNCC[C@H]1c1ccc(F)cc1 [Example 3 of III, reference compound] | 13.8 | 10000 | – | –
Fc1ccc([C@@H]2CCNC[C@H]2COCc2cccc(C(F)(F)F)c2)cc1 [Example 4 of I, (−)-(3S,4R)-4-(4-Fluoro-phenyl)-3-(3-trifluoromethyl-benzyloxymethyl)-piperidine hydrochloride] | 148 | – | – | 17
CS(=O)(=O)N(Cc1cc(C(F)(F)F)cc(C(F)(F)F)c1)C[C@@H]1CNCC[C@H]1c1ccc(F)cc1 [Example 4 of III, reference compound] | 30.2 | 10000 | – | –
Cc1ccccc1C1=C(COCc2cc(C(F)(F)F)cc(C(F)(F)F)c2)CNCC1 [Example 7 of I, 5-(3,5-Bis-trifluoromethyl-benzyloxymethyl)-4-o-tolyl-1,2,3,6-tetrahydro-pyridine hydrochloride] | – | 32.4 | 3.16 | –
